# Measured values reported in article PMC6095594, “Pre-clinical evaluation of quinoxaline-derived chalcones in tuberculosis” (PLoS ONE, 2018).
# Tests used:
# S. typhimurium TA1535 = assay: Salmonella/microsome mutagenicity test
# Method: (§1) Salmonella typhimurium strains TA98, TA97a, TA100, TA1535, and TA102 were provided by MOLTOX® (Molecular Toxicology Inc. USA). Mutagenicity was assayed according to the pre-incubation procedure following the recommendation described in Mortelmans and Zieger (2000). […] Briefly, 100 μL of test bacterial cultures (1–2 x 10^9 cells/mL) were incubated at 37 °C with different concentrations of N9 (10–400 μg/plate) in the presence or absence of S9 mix, for 20 min, without shaking. […] Plates were incubated in the dark at 37 °C for 48 h before counting the revertant colonies. Assays were repeated twice and the plating for each concentration was conducted in triplicate. Data were evaluated by one-way analysis of variance (ANOVA), followed by Dunnett's post-test, using GraphPad Prism 5.0 (GraphPad, San Diego, CA, USA).
# S. typhimurium TA100 = assay: Salmonella/microsome mutagenicity test
# Method: as §1
# CYP2C19 = CYP2C19 (Homo sapiens, UniProt P33261); conditions: human liver microsomes, CYP2C19, N9 0.01–100 μmol L^-1
# Sequence of CYP2C19 (P33261 whole entry): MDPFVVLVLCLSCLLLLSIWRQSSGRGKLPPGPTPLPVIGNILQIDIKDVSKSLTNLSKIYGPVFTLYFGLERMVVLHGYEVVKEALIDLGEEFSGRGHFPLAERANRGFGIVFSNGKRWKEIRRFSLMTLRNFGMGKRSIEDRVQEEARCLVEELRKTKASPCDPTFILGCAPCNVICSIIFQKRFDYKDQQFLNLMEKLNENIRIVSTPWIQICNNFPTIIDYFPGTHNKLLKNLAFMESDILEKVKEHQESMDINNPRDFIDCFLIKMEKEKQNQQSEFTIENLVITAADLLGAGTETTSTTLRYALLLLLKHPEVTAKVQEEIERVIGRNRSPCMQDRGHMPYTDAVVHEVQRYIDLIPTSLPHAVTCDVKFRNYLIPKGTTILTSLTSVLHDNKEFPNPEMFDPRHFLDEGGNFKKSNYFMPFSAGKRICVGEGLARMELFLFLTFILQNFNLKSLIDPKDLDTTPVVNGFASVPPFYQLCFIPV
structure (smiles),measurement,setting,value
COc1ccc(OC)c(C(=O)/C=C/c2ccc3nccnc3c2)c1 [N9],MI: mutagenic index,"S. typhimurium TA1535; TA1535, +S9, 10 μg/plate",1.16
same,Number of revertants/plate,"S. typhimurium TA1535; TA1535, +S9, 10 μg/plate",9.7±1.2 Rev/plate
same,MI: mutagenic index,"S. typhimurium TA1535; TA1535, +S9, 50 μg/plate",1.24
same,Number of revertants/plate,"S. typhimurium TA1535; TA1535, +S9, 50 μg/plate",10.3±2.5 Rev/plate
same,MI: mutagenic index,"S. typhimurium TA1535; TA1535, +S9, 100 μg/plate",1.00
same,Number of revertants/plate,"S. typhimurium TA1535; TA1535, +S9, 100 μg/plate",8.3±4.9 Rev/plate
same,MI: mutagenic index,"S. typhimurium TA1535; TA1535, +S9, 200 μg/plate",1.04
same,Number of revertants/plate,"S. typhimurium TA1535; TA1535, +S9, 200 μg/plate",8.7±1.2 Rev/plate
same,MI: mutagenic index,"S. typhimurium TA1535; TA1535, +S9, 400 μg/plate",0.68
same,Number of revertants/plate,"S. typhimurium TA1535; TA1535, +S9, 400 μg/plate",5.7±1.2 Rev/plate
same,MI: mutagenic index,"S. typhimurium TA1535; TA1535, -S9, 10 μg/plate",1.03
same,Number of revertants/plate,"S. typhimurium TA1535; TA1535, -S9, 10 μg/plate",11.7±0.6 Rev/plate
same,MI: mutagenic index,"S. typhimurium TA1535; TA1535, -S9, 50 μg/plate",0.82
same,Number of revertants/plate,"S. typhimurium TA1535; TA1535, -S9, 50 μg/plate",9.3±0.6 Rev/plate
same,MI: mutagenic index,"S. typhimurium TA1535; TA1535, -S9, 100 μg/plate",1.03
same,Number of revertants/plate,"S. typhimurium TA1535; TA1535, -S9, 100 μg/plate",11.7±5.9 Rev/plate
same,MI: mutagenic index,"S. typhimurium TA1535; TA1535, -S9, 200 μg/plate",1.18
same,Number of revertants/plate,"S. typhimurium TA1535; TA1535, -S9, 200 μg/plate",13.3±4.0 Rev/plate
same,MI: mutagenic index,"S. typhimurium TA1535; TA1535, -S9, 400 μg/plate",1.24
same,Number of revertants/plate,"S. typhimurium TA1535; TA1535, -S9, 400 μg/plate",14.0±3.6 Rev/plate
same,MI: mutagenic index,"S. typhimurium TA100; TA100, +S9, 10 μg/plate",0.94
same,Number of revertants/plate,"S. typhimurium TA100; TA100, +S9, 10 μg/plate",108.7±15.2 Rev/plate
same,MI: mutagenic index,"S. typhimurium TA100; TA100, +S9, 50 μg/plate",1.13
same,Number of revertants/plate,"S. typhimurium TA100; TA100, +S9, 50 μg/plate",130.7±10.7 Rev/plate
same,MI: mutagenic index,"S. typhimurium TA100; TA100, +S9, 100 μg/plate",0.97
same,Number of revertants/plate,"S. typhimurium TA100; TA100, +S9, 100 μg/plate",112.7±15.5 Rev/plate
same,MI: mutagenic index,"S. typhimurium TA100; TA100, +S9, 200 μg/plate",0.95
same,Number of revertants/plate,"S. typhimurium TA100; TA100, +S9, 200 μg/plate",110.0±11.8 Rev/plate
same,MI: mutagenic index,"S. typhimurium TA100; TA100, +S9, 400 μg/plate",0.97
same,Number of revertants/plate,"S. typhimurium TA100; TA100, +S9, 400 μg/plate",112.0±13.9 Rev/plate
same,MI: mutagenic index,"S. typhimurium TA100; TA100, -S9, 10 μg/plate",1.08
same,Number of revertants/plate,"S. typhimurium TA100; TA100, -S9, 10 μg/plate",125.0±10.5 Rev/plate
same,MI: mutagenic index,"S. typhimurium TA100; TA100, -S9, 50 μg/plate",0.88
same,Number of revertants/plate,"S. typhimurium TA100; TA100, -S9, 50 μg/plate",101.0±12.5 Rev/plate
same,MI: mutagenic index,"S. typhimurium TA100; TA100, -S9, 100 μg/plate",0.84
same,Number of revertants/plate,"S. typhimurium TA100; TA100, -S9, 100 μg/plate",97.0±20.1 Rev/plate
same,MI: mutagenic index,"S. typhimurium TA100; TA100, -S9, 200 μg/plate",0.95
same,Number of revertants/plate,"S. typhimurium TA100; TA100, -S9, 200 μg/plate",109.7±7.8 Rev/plate
same,MI: mutagenic index,"S. typhimurium TA100; TA100, -S9, 400 μg/plate",0.84
same,Number of revertants/plate,"S. typhimurium TA100; TA100, -S9, 400 μg/plate",96.7±9.3 Rev/plate
same,percentage of remaining enzyme activity,CYP2C19,approximately 100%
